Results: US20090035306A1 (KALYPSYS, INC., priority 2006, published 2009)

Key:
[1] = biological target: T1, human TGR5 (Homo sapiens, UniProt Q8TDU6); assay: cAMP production assay in HEK293 cells stably expressing TGR5 (LANCE TR-FRET); format: cell-based; conditions: 30 minutes stimulation, read-out: cAMP Production in 293-TGR5 Cells EC50
T1 construct: expressed in transfected cells
T1 sequence (Q8TDU6 1-330): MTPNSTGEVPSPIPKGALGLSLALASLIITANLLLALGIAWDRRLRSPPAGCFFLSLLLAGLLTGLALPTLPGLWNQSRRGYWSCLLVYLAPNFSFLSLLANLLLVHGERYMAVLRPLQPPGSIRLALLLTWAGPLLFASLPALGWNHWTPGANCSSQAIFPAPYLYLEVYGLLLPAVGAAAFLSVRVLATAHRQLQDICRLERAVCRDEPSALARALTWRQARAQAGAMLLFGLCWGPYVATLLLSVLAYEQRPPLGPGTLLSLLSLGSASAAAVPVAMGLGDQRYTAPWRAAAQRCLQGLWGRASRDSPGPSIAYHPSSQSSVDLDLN
Summary of the method: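 HEK293 cells stably transfected with human TGR5, incubated overnight in DMEM with 0.1% FBS, then given IBMX (1 mM final) and stimulated with compounds for 30 minutes. cAMP measured by LANCE TR-FRET after 1-7 h detection at room temperature. EC50 values reported as ≦10 μM (+) or >10 μM (−).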

[2] = tested on: Mice; assay: Glucose tolerance test (GTT), glucose disposal; format: in vivo, mouse; conditions: 30 mg/kg
Experimental: (§1) Vehicle is CMC-Tween: 0.5% CMC+0.25% Tween 20 at an appropriate ml/kg. Dextrose dose per mouse=2 g dextrose/kg made from 0.5 g/ml stock dextrose solution. Compound 1 dose per mouse=30 mg/kg in CMC/Tween vehicle made from 4 mg/mL stock solution by adding 50 μL DMSO to 20 mg Compound 1, stirring to make a paste, adding 1 ml CMC/Tween with stirring, sonicating for 8 minutes on energy 05, and adjusting to 5 ml with CMC/Tween.
Glucose Tolerance Test (GTT)/Insulin Test
(§2) Mice (5 per group) were fasted at 6 am for an experiment at noon. Blood glucose was measured from tail nick blood using an Accucheck—Compact Monitoring Kit (Roche Diagnostics, Indianapolis Ind.). Baseline (time=−15 min) blood glucose concentration was determined for all mice and tail nick blood samples were collected. 2 g/kg dextrose (Hospira, Lake Forest, Ill.) was administered orally at time 0. Blood samples were collected from the following mice via tail nick blood draw (˜100 μL) into EDTA microtainer tubes at the following time points: −15, 0, 3, 6, 9, 12, 15, 20, 30 and 120 min. Terminal blood samples were collected from portal vein draws in three mice at t=20. Blood plasma was harvested from blood collected in EDTA microvettes by centrifugation (10 min at […]). Plasma was stored in −80 C freezer to be analyzed for other chemistry measurements.

[3] = tested on: Mice; assay: Glucose-stimulated insulin secretion (GTT/insulin test, insulin ELISA); format: in vivo, mouse; conditions: 30 mg/kg; for Plasma Insulin, AUC, Mean: glucose-stimulated insulin secretion, in ng·min/mL (unit assumed)
Experimental: as §1
as §2, with “Blood samples were collected from the following mice via tail nick blood draw (˜100 μL) into EDTA microtainer tubes at the following time points: −15, 0, 3, 6, 9, 12, 15, 20, 30 and 120 min.” left out
A Mercodia ultrasensitive mouse insulin ELISA kit (Mercodia AB, Uppsala, Sweden) was used in a 96-well coated plate. All reagents and samples were brought to room temperature before use, Calibrator concentrations were 0.07, 0.13, 0.25, 0.63, 1.9, 5.2, 13.0, and 64.0 μg/L, and a calibration curve was prepared for each assay run. To 25 μL calibrator 0 in each well was added 5 μL calibrators and 5 μL of samples/standards in duplicate, then 50 μL dilute enzyme conjugate 11× in enzyme conjugate buffer. This was incubated on a shaker for 2 hours at room temperature (18-25° C.), and each well was washed 5 times in 350 μL wash buffer and aspirated completely. After final wash, plate was inverted and tapped firmly against absorbent paper. 200 μL substrate TMB was added to each well and incubated for 30 minutes. 50 μL stop solution was added to each well, and the plate was placed on the shaker for about 5 seconds to ensure mixing of substrate and stop Solution. Absorbance was measured at 450 nm.

[4] = tested on: Mice; assay: Glucose tolerance test (GTT), glucose disposal; format: in vivo, mouse; conditions: 30 mg/kg, 2 g/kg dextrose orally at time 0, time 60 min
[5] = 2 g/kg dextrose orally at time 0, time 0 min
[6] = 2 g/kg dextrose orally at time 0, time 3 min
[7] = 2 g/kg dextrose orally at time 0, time 6 min
[8] = 2 g/kg dextrose orally at time 0, time 9 min
[9] = 2 g/kg dextrose orally at time 0, time 12 min
[10] = 2 g/kg dextrose orally at time 0, time 15 min
[11] = 2 g/kg dextrose orally at time 0, time 20 min
[12] = 2 g/kg dextrose orally at time 0, time 30 min
[13] = 2 g/kg dextrose orally at time 0, time 120 min
[14] = 2 g/kg dextrose orally at time 0, time −15 min (baseline)

SMILES: O=c1c2ccccc2nc(-c2ccc(F)cc2)n1NCc1ccc(Br)cc1 [Example 1]
- EC50 [1]: ≤ 10 µM
- Plasma Glucose, Mean [2, 5]: 220.4 mg/dL
- Plasma Glucose, Mean [2, 6]: 272.2 mg/dL
- Plasma Glucose, Mean [2, 7]: 332.6 mg/dL
- Plasma Glucose, Mean [2, 8]: 398.2 mg/dL
- Plasma Glucose, Mean [2, 9]: 427.2 mg/dL
- Plasma Glucose, Mean [2, 10]: 430.0 mg/dL
- Plasma Glucose, Mean [2, 11]: 425.9 mg/dL
- Plasma Glucose, Mean [2, 12]: 354.6 mg/dL
- Plasma Glucose, Mean [2, 13]: 213.2 mg/dL
- Plasma Glucose, Mean [2, 14]: 170.0 mg/dL
- Plasma Glucose, AUC, Mean ([2]; glucose tolerance test, 0-120 min): 16400
- Plasma Insulin, Mean [3, 5]: 1.56 ng/mL
- Plasma Insulin, Mean [3, 6]: 2.35 ng/mL
- Plasma Insulin, Mean [3, 7]: 3.24 ng/mL
- Plasma Insulin, Mean [3, 8]: 3.94 ng/mL
- Plasma Insulin, Mean [3, 9]: 4.18 ng/mL
- Plasma Insulin, Mean [3, 10]: 4.05 ng/mL
- Plasma Insulin, Mean [3, 11]: 3.79 ng/mL
- Plasma Insulin, Mean [3, 12]: 1.82 ng/mL
- Plasma Insulin, Mean ([3]; 2 g/kg dextrose orally at time 0, time 60 min): 1.23 ng/mL
- Plasma Insulin, Mean [3, 13]: 1.17 ng/mL
- Plasma Insulin, Mean [3, 14]: 1.78 ng/mL
- Plasma Insulin, AUC, Mean ([3]; 0-15 min): 35.15
- Plasma Insulin, AUC, Mean ([3]; 0-30 min): 68.39
- Plasma Glucose, Mean [4]: 294.2 mg/dL
